Data set [1] can be described thus: Stability of 4NSG in PBS (pH 7.4). In kind it is physicochemical. Conditions: 4NSG 10 µM, PBS pH 7.4, 37 °C, end of the 4 h study. Here is the method: (§1) The metabolic stability of 4NSG was examined in the presence of PBS (pH 7.4) and human liver microsomes as previously described. Human liver microsomes were obtained from Sigma-Aldrich. 4NSG (10 µM) was spiked into PBS, or liver microsomes (1 mg protein/mL) and incubated in a shaking water bath at 37 °C for […]. Aliquots (100 µL) were taken after 0, 15, 30, 60, 120, 180, 220 and 240 min of incubation and immediately pretreated with an ice-cold methanolic solution including the internal standard, vortexed for 3 min and centrifuged (12,000 × g, 10 min). Supernatants were stored at -80 C until required for analysis.
(§2) To determine concentrations of 4NSG in PBS and human liver microsomes solutions, supernatants from PBS and human liver microsomes controls were spiked with aliquots of 0.5 μg/ml of 4NSG. The chromatographic analysis was performed according to the method described with minor modifications. The samples were prepared using aliquots of supernatants (10µL) of control (spiked), PBS, and human liver microsomes. […] A plot of the peak areas as a function of 4NSG concentration was plotted, and the linear equation of the calibration curve given as y = mx + c was determined, where y is the peak area, m is the slope, x is the concentration of 4NSG, and c is the y—intercept.

Data set [2] deals with pancreatic patient-derived xenograft (PDX) mouse model. More on the design: method as in PMID 33015617. Conditions: earlier work of the authors ref 22; cited from earlier work.
Data set [3] in a line: In vitro metabolic stability of 4NSG in human liver microsomes. In kind it is in vitro ADME. The settings on record: 4NSG 10 µM, liver microsomes 1 mg protein/mL, 37 °C, end of the 4 h study. As for the experimental part: as §1, §2
A general note: Liver microsomes are a subcellular fraction often used to study metabolism.

The nature of data set [4]: In vitro release of 4NSG (dialysis bag, PBS pH 7.4). In kind it is physicochemical. The settings on record: PBS pH 7.4, 37 °C. As for the experimental part:
Cumulative in vitro drug release studies were performed as previously described. Free 4NSG (3 mg), freshly prepared and lyophilized 4NSG-SLNs containing approximately 5 mg (suspended in 2 mL PBS) were placed in dialysis bags with molecular weight cut-off (MWCO) of 3.5 kDa) and immersed in their respective labeled 15 mL PBS, (pH 7.4) as the release medium and incubated at 37 °C. The free 4NSG, freshly prepared and lyophilized 4NSG-SLNs solutions were gently stirred at 100 rpm 1 mL aliquots were withdrawn and replenished with fresh PBS (maintained at 37 °C) at 0, 1, 2, 4, 8, and 12 h for analysis. The samples were analyzed for the presence of 4NSG using the HPLC system previously described under the HPLC analysis of 4NSG of the in vitro metabolic stability of the 4NSG section.

Another data set concerns PPCL-46 cells. Put plainly: Cell viability (resazurin/Alamar blue), PPCL-46. The settings on record: Homo sapiens; 48 h treatment. In kind it is cell-based. Here is the method: (§3) PCa primary cell were cultured with Dulbecco's modified Eagle medium (DMEM) with high glucose and L-glutamine and supplemented with 10% fetal bovine serum (FBS) and 1% penicillin–streptomycin (PenStrep). Briefly, PPCL-192, PPCL-135, PPCL-46, and PPCL-68 were seeded at a density of 1 × 10^3 per well in 96-well plates in triplicates for each drug concentration level and incubated at 5% CO2 and a temperature of 37 °C [32]. At 70 -75% confluency, PPCL-192, PPCL-135, PPCL-46, and PPCL-68 cells were treated with GemHCl, 4NSG-free SLN, and 4NSG-SLN. Varying concentrations of 4NSG-SLN and 4NSG-free SLN were prepared by diluting their stock solutions with a growth medium. For GemHCl, a stock solution was prepared with phosphate-buffered saline (PBS) and serially diluted with a growth medium to prepare different concentrations: 3, 6, 12, 25, 50, and 100 µM. The cells were treated with 100 µL of each drug concentration in triplicates and incubated for 48 h. At termination, 20 µL of 0.05% resazurin sodium salt (Alamar blue®) was added and incubated at optimum conditions (5% CO2, 37 °C) for 2–4 h. GloMax® Explorer Multimode Microplate reader with a fluorescence excitation wavelength of 560/580 nm and emission wavelength of 590/610 nm was used to determine the percent viable cells per concentration calculated.
A general note: Alamar Blue is a resazurin reagent that responds to reducing activity.

A further data set concerns PPCL-135 cells. Put plainly: Cell viability (resazurin/Alamar blue), PPCL-135. The format is cell-based. The settings on record: Homo sapiens; 48 h treatment. Here is the method:
as §3

A further data set concerns PPCL-68 cells. Put plainly: Cell viability (resazurin/Alamar blue), PPCL-68. In kind it is cell-based. Conditions: Homo sapiens; 48 h treatment. Here is the method: as §3
The conditions of data set [5]: background statement of the introduction, no reference printed with it; cited from earlier work.
The subject of the next data set is PPCL-192 cells. Put plainly: Cell viability (resazurin/Alamar blue), PPCL-192. The settings on record: Homo sapiens; 48 h treatment. The format is cell-based. Here is the method:
as §3

In the case of `CCCCCCCCCCCCCCCCCC(=O)Nc1ccn([C@@H]2OC(CO)C(O)C2(F)F)c(=O)n1` (some centres unmarked) [4NSG, 4-(N)-stearoyl-gemcitabine], in data set [1], the “metabolic stability of 4NSG in PBS” value is 99%. In data set [2], the “morphological changes to mice's liver and kidney tissues” value was “no morphological changes”; the “tumor growth in pancreatic PDX mouse model” value is listed as “remarkably reduced tumor growth”. The “percent unchanged 4NSG in human liver microsomal solution” value in [3] is “about 90%”. In data set [4] (2 h to 4 h, dialysis bag), the “further 4NSG release in the next 2 h” value was found to be 20%. In data set [4] (dialysis bag MWCO 3.5 kDa), the “cumulative 4NSG release within the first 2 h” value is recorded as “about 60%”.

What is called IC50 is the point on the concentration scale where inhibition reaches its midpoint. High values mean weaker potency in that assay, low ones greater potency in that assay. In the case of `Nc1ccn([C@@H]2O[C@H](CO)[C@@H](O)C2(F)F)c(=O)n1` [Gem, Gemcitabine], the IC50 came to 56 ± 1.8 µM with PPCL-46 cells, 56 ± 1.5 µM with PPCL-135 cells, 57 ± 2.4 µM in the data set on PPCL-68 cells and 57 ± 1.5 µM in the data set on PPCL-192 cells. Also, in data set [5], the plasma circulation half-life is listed as less than 15 min.

These data come from PMC10182601, “Biological evaluation of novel gemcitabine analog in patient-derived xenograft models of pancreatic cancer” (BMC Cancer, 2023).
